Patent publication US9540381B2, “Anti-angiogenesis compound, intermediate and use thereof” (Guangzhou KangRui Biological Pharmaceutical Technology Co., …, priority 2013, dated 2017)

Tests used:
PKC-α = target: T1, PKC-α (Homo sapiens, UniProt P17252); assay: Inhibition specificity, PKC-α; format: biochemical; settings: 5000 nM, average of two tests; read-out: Average Inhibition Rate (%) PKC-α
T1 construct: purchased INVITROGEN

BRAF = target: T2, BRAF (Homo sapiens, UniProt P15056); assay: Inhibition specificity, BRAF; format: biochemical; settings: 5000 nM, average of two tests; read-out: Average Inhibition Rate (%) BRAF
T2 construct: purchased UPSTATE

PDGFR-β [1] = target: T3, PDGFR-β (Homo sapiens, UniProt P09619); assay: Kinase inhibition dosage effect, PDGFR-β; format: biochemical; settings: for IC50: [ATP] 30 μM, 3 hr; for Hill PDGFR-β: dose-effect curve fit
T3 construct: purchased Upstate
T3 sequence (P09619 33-1106, species assumed): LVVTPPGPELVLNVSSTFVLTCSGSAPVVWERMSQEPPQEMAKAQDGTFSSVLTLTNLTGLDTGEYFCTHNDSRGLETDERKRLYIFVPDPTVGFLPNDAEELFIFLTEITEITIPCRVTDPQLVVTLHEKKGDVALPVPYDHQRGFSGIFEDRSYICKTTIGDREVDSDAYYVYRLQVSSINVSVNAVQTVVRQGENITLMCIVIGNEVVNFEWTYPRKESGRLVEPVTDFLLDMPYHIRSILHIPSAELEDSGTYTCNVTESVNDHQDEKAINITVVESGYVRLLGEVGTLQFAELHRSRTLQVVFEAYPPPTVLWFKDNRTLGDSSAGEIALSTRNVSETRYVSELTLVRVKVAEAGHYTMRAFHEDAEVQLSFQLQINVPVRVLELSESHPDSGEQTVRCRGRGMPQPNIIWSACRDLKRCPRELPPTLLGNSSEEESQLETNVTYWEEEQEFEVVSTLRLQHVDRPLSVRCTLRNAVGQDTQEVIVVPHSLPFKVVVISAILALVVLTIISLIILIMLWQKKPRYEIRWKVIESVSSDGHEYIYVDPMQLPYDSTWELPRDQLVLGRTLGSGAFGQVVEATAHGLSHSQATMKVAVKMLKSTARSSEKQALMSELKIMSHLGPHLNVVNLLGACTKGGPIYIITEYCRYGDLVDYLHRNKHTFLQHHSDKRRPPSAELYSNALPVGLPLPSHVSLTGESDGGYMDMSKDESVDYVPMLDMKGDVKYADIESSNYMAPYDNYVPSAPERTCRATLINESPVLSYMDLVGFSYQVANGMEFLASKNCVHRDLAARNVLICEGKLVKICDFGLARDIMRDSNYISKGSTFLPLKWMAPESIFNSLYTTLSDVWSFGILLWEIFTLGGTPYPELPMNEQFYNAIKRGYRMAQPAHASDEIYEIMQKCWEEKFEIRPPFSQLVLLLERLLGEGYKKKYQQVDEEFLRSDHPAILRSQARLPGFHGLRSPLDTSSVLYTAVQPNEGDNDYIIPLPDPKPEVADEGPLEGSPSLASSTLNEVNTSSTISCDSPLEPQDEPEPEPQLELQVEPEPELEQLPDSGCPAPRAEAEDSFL

CHEK1 = target: T4, CHEK1 (Homo sapiens, UniProt O14757); assay: Inhibition specificity, CHEK1; format: biochemical; settings: 5000 nM, average of two tests; read-out: Average Inhibition Rate (%) CHEK1
T4 construct: purchased CARNA
T4 sequence (O14757 whole entry, species assumed): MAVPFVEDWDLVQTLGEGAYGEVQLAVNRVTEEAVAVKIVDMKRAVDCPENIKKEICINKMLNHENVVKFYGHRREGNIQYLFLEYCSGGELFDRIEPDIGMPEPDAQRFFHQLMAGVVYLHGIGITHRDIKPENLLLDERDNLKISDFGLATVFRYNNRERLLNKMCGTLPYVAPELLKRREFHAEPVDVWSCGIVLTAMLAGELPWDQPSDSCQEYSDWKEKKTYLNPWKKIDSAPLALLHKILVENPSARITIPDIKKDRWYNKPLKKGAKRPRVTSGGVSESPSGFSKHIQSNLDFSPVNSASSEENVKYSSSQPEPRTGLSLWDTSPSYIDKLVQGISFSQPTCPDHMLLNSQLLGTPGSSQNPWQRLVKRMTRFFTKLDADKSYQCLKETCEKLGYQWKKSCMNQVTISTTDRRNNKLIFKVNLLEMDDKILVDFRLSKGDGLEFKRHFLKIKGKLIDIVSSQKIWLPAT

corneal angiogenesis = assay: Rabbit corneal chemical burn model; format: in vivo, white rabbits; settings: 100 uM subconjunctival injection then drops twice a day, 7 days
Method: This test tested in total 5 white rabbits who were 5-6 month old. After narcotizing, in the center of the cornea, the right eye was treated with a 6 mm diameter of round filter paper which was soaked with 0.1M NaOH, induced for 3 min to produce chemical burn modeling.

GSK-3-β = target: T5, GSK-3-β (Homo sapiens, UniProt P49841); assay: Inhibition specificity, GSK-3-β; format: biochemical; settings: 5000 nM, average of two tests; read-out: Average Inhibition Rate (%) GSK-3-β
T5 construct: purchased UPSTATE

VEGFR2 = target: T6, VEGFR2 (Homo sapiens, UniProt P35968); assay: In vitro inhibition test on VEGFR2 in HUVECs (anti-phosphorylated VEGFR2 blot); format: cell-based; settings: 10 nM, 100 nM and 1 μM, 50 ng/ml VEGF
T6 construct: endogenous in cells; host or cells: primary HUVECs P3-P5
T6 sequence (P35968 20-1356): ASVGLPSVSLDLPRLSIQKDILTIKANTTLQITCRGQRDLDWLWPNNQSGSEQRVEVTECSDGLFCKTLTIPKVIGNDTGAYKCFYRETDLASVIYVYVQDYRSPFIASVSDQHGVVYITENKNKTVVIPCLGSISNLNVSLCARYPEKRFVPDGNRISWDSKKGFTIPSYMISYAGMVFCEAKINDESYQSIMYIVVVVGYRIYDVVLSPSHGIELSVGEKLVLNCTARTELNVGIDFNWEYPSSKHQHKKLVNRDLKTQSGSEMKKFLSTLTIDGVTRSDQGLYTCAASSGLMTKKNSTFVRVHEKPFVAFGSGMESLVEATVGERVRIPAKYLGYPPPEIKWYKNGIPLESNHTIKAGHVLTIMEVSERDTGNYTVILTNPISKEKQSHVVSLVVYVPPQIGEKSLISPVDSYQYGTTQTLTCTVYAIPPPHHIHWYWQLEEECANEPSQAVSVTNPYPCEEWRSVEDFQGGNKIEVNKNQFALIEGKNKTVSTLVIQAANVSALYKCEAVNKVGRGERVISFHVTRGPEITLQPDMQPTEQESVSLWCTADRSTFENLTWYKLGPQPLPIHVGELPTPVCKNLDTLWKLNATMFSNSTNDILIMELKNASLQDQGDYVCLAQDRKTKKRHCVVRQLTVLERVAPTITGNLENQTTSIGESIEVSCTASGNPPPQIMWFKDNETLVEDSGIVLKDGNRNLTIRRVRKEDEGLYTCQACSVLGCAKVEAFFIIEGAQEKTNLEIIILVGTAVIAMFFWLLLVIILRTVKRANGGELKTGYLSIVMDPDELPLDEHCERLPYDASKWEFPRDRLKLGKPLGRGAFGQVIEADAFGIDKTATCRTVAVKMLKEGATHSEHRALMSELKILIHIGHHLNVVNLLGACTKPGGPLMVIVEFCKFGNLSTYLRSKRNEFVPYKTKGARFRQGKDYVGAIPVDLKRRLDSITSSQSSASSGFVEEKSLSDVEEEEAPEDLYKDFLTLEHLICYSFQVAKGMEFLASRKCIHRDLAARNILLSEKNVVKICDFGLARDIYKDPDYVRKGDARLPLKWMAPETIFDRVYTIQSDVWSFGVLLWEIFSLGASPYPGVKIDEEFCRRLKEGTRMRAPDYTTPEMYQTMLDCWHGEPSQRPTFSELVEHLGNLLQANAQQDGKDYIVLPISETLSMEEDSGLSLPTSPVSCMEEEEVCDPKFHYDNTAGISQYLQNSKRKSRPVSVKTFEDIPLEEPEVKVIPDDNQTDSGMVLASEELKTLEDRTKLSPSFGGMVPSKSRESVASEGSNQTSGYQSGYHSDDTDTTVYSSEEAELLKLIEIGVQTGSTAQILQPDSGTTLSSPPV
Method: The experimental method of detecting the inhibition of the compounds of the present invention on VEGFR2 kinase is as follows:
1) The primary cultured human umbilical vein endothelial cells (HUVECs) P3-P5 were transferred to 6 well plate, 2×10^5 cells per well;
2) compounds 2-1, 2-2 and 2-4 of the present invention (the concentrations are 10 nM, 100 nM and 1 μM for each compound) were added when the cells grow to 70-80%, VEGF was a control, incubation for 30 min;
3) 50 ng/ml VEGF (cell Signaling company, US) was added, stimulating for 10 min;
4) nondenature lysis buffer was added to terminate the reaction, and cell lysis buffer was collected to carry out protein quantification;
5) SDS-PAGE electrophoresis, transfer to nitrocellulose membrane, the membrane was cut off and sealed in phosphate tween buffer, TTBS buffer (Tris-buffered saline 0.01% Tween 20, cell Signaling company, US, PH8.0) formulated from 5% skimmed milk for 2 hours; 6) wash the membrane, seal at 4° C. overnight by use of an anti-phosphorylated VEGFR2 antibody (1:1000 dilution, cell Signaling company, US); 7) on the second day after washing membrane, horse radish peroxidase marked goat anti-rabbit second antibody (cell Signaling company, US) was incubated with the membrane at room temperature for 1 hour; 8) develop with chemiluminescence kit (Millipore company) after washing membrane, and take photos.

EGFR = EGFR (Homo sapiens, UniProt P00533); assay: Inhibition specificity, EGFR; format: biochemical; settings: 5000 nM, average of two tests; read-out: Average Inhibition Rate (%) EGFR
EGFR, sequence (P00533 25-1210, species assumed): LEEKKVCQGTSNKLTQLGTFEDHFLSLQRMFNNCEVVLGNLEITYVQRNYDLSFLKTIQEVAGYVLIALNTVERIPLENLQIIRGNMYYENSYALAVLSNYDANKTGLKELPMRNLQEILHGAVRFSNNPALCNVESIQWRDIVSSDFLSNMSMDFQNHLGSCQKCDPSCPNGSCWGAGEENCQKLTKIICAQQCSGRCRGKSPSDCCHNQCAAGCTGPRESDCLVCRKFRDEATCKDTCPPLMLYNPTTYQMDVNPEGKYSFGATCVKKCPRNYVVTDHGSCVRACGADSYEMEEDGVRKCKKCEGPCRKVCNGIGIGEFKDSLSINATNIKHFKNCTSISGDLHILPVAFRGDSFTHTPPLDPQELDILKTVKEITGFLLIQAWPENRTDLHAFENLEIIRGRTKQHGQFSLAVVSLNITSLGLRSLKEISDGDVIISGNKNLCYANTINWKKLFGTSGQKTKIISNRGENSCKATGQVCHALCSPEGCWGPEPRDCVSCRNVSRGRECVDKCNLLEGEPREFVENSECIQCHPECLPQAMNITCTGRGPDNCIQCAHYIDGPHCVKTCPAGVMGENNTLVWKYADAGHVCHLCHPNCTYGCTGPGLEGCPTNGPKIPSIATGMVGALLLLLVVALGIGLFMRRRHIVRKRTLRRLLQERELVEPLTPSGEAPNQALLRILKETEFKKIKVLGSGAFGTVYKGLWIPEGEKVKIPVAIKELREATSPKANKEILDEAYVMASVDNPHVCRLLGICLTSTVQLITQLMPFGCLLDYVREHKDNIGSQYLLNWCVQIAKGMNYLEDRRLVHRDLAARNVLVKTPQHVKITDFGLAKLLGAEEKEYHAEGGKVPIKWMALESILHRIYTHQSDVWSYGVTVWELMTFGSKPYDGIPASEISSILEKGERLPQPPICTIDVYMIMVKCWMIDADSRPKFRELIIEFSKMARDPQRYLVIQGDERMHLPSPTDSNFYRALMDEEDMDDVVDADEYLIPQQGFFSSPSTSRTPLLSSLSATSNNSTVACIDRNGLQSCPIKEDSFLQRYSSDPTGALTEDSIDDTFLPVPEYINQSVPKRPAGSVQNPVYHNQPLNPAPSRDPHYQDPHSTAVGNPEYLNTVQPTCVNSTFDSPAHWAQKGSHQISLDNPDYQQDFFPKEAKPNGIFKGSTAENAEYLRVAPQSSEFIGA

FGFR2 = target: T7, FGFR2 (Homo sapiens, UniProt P21802); assay: Inhibition specificity, FGFR2; format: biochemical; settings: 5000 nM, average of two tests; read-out: Average Inhibition Rate (%) FGFR2
T7 construct: purchased CARNA

MAPK3 = target: T8, MAPK3 (Homo sapiens, UniProt P27361); assay: Inhibition specificity, MAPK3; format: biochemical; settings: 5000 nM, average of two tests; read-out: Average Inhibition Rate (%) MAPK3
T8 construct: purchased INVITROGEN

P38-α = target: T9, P38-α (Homo sapiens, UniProt Q16539); assay: Inhibition specificity, P38-α; format: biochemical; settings: 5000 nM, average of two tests; read-out: Average Inhibition Rate (%) P38-α
T9 construct: purchased AMPHORA

JAK2 = target: T10, JAK2 (Homo sapiens, UniProt O60674); assay: Inhibition specificity, JAK2; format: biochemical; settings: 5000 nM, average of two tests; read-out: Average Inhibition Rate (%) JAK2
T10 construct: purchased INVITROGEN

DMPK = target: T11, DMPK (Homo sapiens, UniProt Q09013); assay: Inhibition specificity, DMPK; format: biochemical; settings: 5000 nM, average of two tests; read-out: Average Inhibition Rate (%) DMPK
T11 construct: purchased INVITROGEN

SRC = target: T12, SRC (Homo sapiens, UniProt P12931); assay: Inhibition specificity, SRC; format: biochemical; settings: 5000 nM, average of two tests; read-out: Average Inhibition Rate (%) SRC
T12 construct: purchased INVITROGEN
T12 sequence (P12931 whole entry, species assumed): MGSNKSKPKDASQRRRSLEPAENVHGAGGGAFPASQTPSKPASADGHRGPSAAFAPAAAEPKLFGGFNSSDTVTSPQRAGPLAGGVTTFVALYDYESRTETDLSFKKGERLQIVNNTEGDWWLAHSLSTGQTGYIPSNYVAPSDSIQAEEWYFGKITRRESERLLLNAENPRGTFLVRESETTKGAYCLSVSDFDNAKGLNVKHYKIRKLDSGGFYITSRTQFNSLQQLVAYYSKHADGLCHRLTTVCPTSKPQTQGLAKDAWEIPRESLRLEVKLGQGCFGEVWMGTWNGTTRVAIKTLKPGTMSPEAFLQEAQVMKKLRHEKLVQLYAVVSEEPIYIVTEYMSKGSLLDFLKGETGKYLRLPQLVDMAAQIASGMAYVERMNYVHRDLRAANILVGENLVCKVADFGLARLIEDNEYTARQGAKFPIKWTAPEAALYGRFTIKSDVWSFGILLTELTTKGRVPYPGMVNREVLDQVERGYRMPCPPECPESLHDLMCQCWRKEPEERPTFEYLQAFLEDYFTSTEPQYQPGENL

AURORA-B = target: T13, AURORA-B (Homo sapiens, UniProt Q96GD4); assay: Inhibition specificity, AURORA-B; format: biochemical; settings: 5000 nM, average of two tests; read-out: Average Inhibition Rate (%) AURORA-B
T13 construct: purchased CARNA

PDGFR-β [2] = target: T3, PDGFR-β; assay: Inhibition specificity, PDGFR-β; format: biochemical; settings: 5000 nM, average of two tests; read-out: Average Inhibition Rate (%) PDGFR-β
MEK1 = target: T14, MEK1 (Homo sapiens, UniProt Q02750); assay: Inhibition specificity, MEK1; format: biochemical; settings: 5000 nM, average of two tests; read-out: Average Inhibition Rate (%) MEK1
T14 construct: purchased UPSTATE
T14 sequence (Q02750 whole entry, species assumed): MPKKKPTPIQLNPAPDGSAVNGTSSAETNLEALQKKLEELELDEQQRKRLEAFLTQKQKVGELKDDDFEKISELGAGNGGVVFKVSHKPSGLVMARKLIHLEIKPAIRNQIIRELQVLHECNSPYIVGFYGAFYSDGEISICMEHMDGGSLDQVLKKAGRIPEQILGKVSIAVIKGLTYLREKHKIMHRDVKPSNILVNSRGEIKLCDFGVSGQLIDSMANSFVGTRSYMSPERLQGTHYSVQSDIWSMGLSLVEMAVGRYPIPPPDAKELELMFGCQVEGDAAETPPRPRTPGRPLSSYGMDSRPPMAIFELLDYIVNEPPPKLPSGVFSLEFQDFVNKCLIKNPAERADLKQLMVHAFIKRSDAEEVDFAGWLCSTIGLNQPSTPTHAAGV

SYK = target: T15, SYK (Homo sapiens, UniProt P43405); assay: Inhibition specificity, SYK; format: biochemical; settings: 5000 nM, average of two tests; read-out: Average Inhibition Rate (%) SYK
T15 construct: purchased BPS

KIT = target: T16, KIT (Homo sapiens, UniProt P10721); assay: Inhibition specificity, KIT; format: biochemical; settings: 5000 nM, average of two tests; read-out: Average Inhibition Rate (%) KIT
T16 construct: purchased INVITROGEN

AKT2 = target: T17, AKT2 (Homo sapiens, UniProt P31751); assay: Inhibition specificity, AKT2; format: biochemical; settings: 5000 nM, average of two tests; read-out: Average Inhibition Rate (%) AKT2
T17 construct: purchased INVITROGEN

inhibition at 5 µM (PKC-α) [%] | inhibition at 5 µM (BRAF) [%] | inhibition activity on PDGFR-β (in words) (PDGFR-β [1]) | IC50 (PDGFR-β [1]) [µM] | Inhibition Rate on PDGFR-β (%) (PDGFR-β [1]; concentration 0.0002823 (uM)) | Inhibition Rate on PDGFR-β (%) (PDGFR-β [1]; concentration 0.0008468 (uM)) | Inhibition Rate on PDGFR-β (%) (PDGFR-β [1]; concentration 0.0025403 (uM)) | Inhibition Rate on PDGFR-β (%) (PDGFR-β [1]; concentration 0.0076208 (uM)) | Inhibition Rate on PDGFR-β (%) (PDGFR-β [1]; concentration 0.0228624 (uM)) | Inhibition Rate on PDGFR-β (%) (PDGFR-β [1]; concentration 0.0685871 (uM)) | Inhibition Rate on PDGFR-β (%) (PDGFR-β [1]; concentration 0.2057613 (uM)) | Inhibition Rate on PDGFR-β (%) (PDGFR-β [1]; concentration 0.6172840 (uM)) | Inhibition Rate on PDGFR-β (%) (PDGFR-β [1]; concentration 1.8518519 (uM)) | Inhibition Rate on PDGFR-β (%) (PDGFR-β [1]; concentration 5.5555556 (uM)) | Inhibition Rate on PDGFR-β (%) (PDGFR-β [1]; concentration 16.6666667 (uM)) | Inhibition Rate on PDGFR-β (%) (PDGFR-β [1]; concentration 50 (uM)) | Hill PDGFR-β (PDGFR-β [1]) | inhibition at 5 µM (CHEK1) [%] | inhibition at 5 µM (GSK-3-β) [%] | SMILES | effect on corneal angiogenesis (in words, FIG. 12) (corneal angiogenesis) | also measured
-0.01 | 4.11 | good inhibition activity | 1.94 | 0.72 | 2.69 | 0.80 | 1.43 | 7.89 | 10.09 | 12.85 | 23.86 | 46.85 | 73.86 | 86.35 | 85.78 | 1.09 | 2.54 | -0.57 | Nc1cc(Oc2ccc3c(C(=O)Nc4cccc(C(F)(F)F)c4)cccc3n2)ncn1 [Compound 2-1] | obviously reduces corneal angiogenesis | inhibition of VEGFR2 (in words, FIG. 8) (VEGFR2): can inhibit VEGFR2; inhibition at 5 µM (EGFR): 5.35%; inhibition at 5 µM (FGFR2): ~36%; inhibition at 5 µM (MAPK3): 1.44%; inhibition at 5 µM (P38-α): 16.9%; inhibition at 5 µM (JAK2): ~21%; inhibition at 5 µM (DMPK): 1.53%; inhibition at 5 µM (SRC): ~21%; inhibition at 5 µM (AURORA-B): ~31%; inhibition at 5 µM (PDGFR-β [2]): ~71%; inhibition at 5 µM (MEK1): 1.06%; inhibition at 5 µM (SYK): -2.15%; inhibition at 5 µM (KIT): ~72%; inhibition at 5 µM (AKT2): 1.35%
2.63 | 37.4 | good inhibition activity | 0.15 | 0.62 | 0.49 | −0.84 | 2.85 | 15.13 | 34.21 | 55.90 | 78.29 | 91.57 | 96.43 | 97.95 | 98.80 | 0.92 | 0.695 | 0.555 | Nc1nccc(Oc2ccc3c(C(=O)Nc4cccc(C(F)(F)F)c4)cccc3n2)n1 [Compound 2-2] | obviously reduces corneal angiogenesis | inhibition of VEGFR2 (in words, FIG. 8) (VEGFR2): can inhibit VEGFR2; inhibition at 5 µM (EGFR): -0.625%; inhibition at 5 µM (FGFR2): > 61%; inhibition at 5 µM (MAPK3): 1.12%; inhibition at 5 µM (P38-α): ~80%; inhibition at 5 µM (JAK2): 7.83%; inhibition at 5 µM (DMPK): 4.5%; inhibition at 5 µM (SRC): ~65%; inhibition at 5 µM (AURORA-B): 13.6%; inhibition at 5 µM (PDGFR-β [2]): ~97%; inhibition at 5 µM (MEK1): 4.96%; inhibition at 5 µM (SYK): -5.87%; inhibition at 5 µM (KIT): ~92%; inhibition at 5 µM (AKT2): -1.2%
